This note sets out measurements from US20230285405A1, “Pharmaceuticals for Treating or Preventing Nidoviruses and Picornaviruses” (priority 2020, published 2023).

SMILES strings stand for the structures. Like-named read-outs stand apart in the source and are kept apart here.

Data set [1] has as its system OC43. As to the kind of experiment: Drug screening: OC43 nucleoprotein staining in infected A549-mRuby cells. It counts as cell-based, human beta coronavirus OC43. The conditions noted are these: for activity at 10 µM: Betacoronavirus 1, OC43, 96 h. In a few lines: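 A549 cells expressing H2B-mRuby infected with OC43 at MOI 0.3 for 1 h at 33° C, then drugs added at 10 μM final and incubated 4 days at 33° C. Viral nucleoprotein immunostained and imaged; intensity normalized to cell number and no-drug controls (=100). Hits reduced staining >3 SD in both repeats without toxicity.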

For data set [2], the system named is OC43. As to the kind of experiment: Dose-response analysis of OC43 infection. Format: cell-based, human beta coronavirus OC43. The note with it: Betacoronavirus 1, OC43, 48 h. The method, then:
Dose-response analysis of OC43 infection was done similarly to the drug screening, except cells were seeded at a concentration of 5,000 cells per well and the media contained 2% BCS instead of 10% BCS. OC43 staining was performed 2 days after infection and analyzed similarly to what was described for the drug screening. A sigmoid fit was used to extract EC50 values using Matlab.

Data set [3] deals with A549-mRuby cells. As to the kind of experiment: Drug screening: effect on cell growth (cell number day 4 / day 0). The conditions noted are these: 10 μM drug; for Growth_1: number of cells at day 4 divided by number of cells at day 0 / toxic_1: repeat #1; for Growth_2: number of cells at day 4 divided by number of cells at day 0 / toxic_2: repeat #2. In outline:
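A549 cells carrying an H2B-mRuby reporter were infected with OC43 at MOI 0.3 for 1 h at 33° C, then given drug at 10 μM final. Cell numbers were counted by imaging at day 0 and again at day 4 after 4 days at 33° C, 5% CO2, with the screen run twice.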

The test system of data set [4] is SARS-CoV-2. Briefly: microbe, parasite or virus in culture. It counts as cell-based, SARS-CoV-2 (nCoV/Washington/1/2020).
Where [5] appears, read: 10 μM drug, MOI 0.3, 4 days, OC43 staining normalized to no-drug controls, mean of the two screen repeats, read-out: OC43_mean.
[6] abbreviates: 10 μM drug, MOI 0.3, 4 days, normalized to no-drug controls in the same plate, repeat #1, read-out: OC43_1: % staining of OC43 in screen repeat #1.
Where [7] appears, read: 10 μM drug, MOI 0.3, 4 days, normalized to no-drug controls in the same plate, repeat #2, read-out: OC43_2: % staining of OC43 in screen repeat #2.
Where [8] appears, read: read-out: EC50 OC43, A549-mRuby cells, staining 2 days after infection.
The mark [9] stands for this setting: Severe acute respiratory syndrome coronavirus 2; read-out: EC50 SARS2.

In data set [1] (10 μM drug, repeat #1), `CCN(CCCCOC(=O)c1ccc(OC)c(OC)c1)C(C)Cc1ccc(OC)cc1.O` (stereo not shown) [Mebeverine Hydrochloride] had a hit_1 of 1. Moreover, the hit_2 in data set [1] (10 μM drug, repeat #2) is given as 1. Further, the activity at 10 µM in data set [1] (setting [5]) worked out at 20%. In data set [1] (setting [6]), the activity at 10 µM was found to be 20.1%. Further, the activity at 10 µM in data set [1] (setting [7]) is 19.9%. Besides, the EC50 in data set [2] (setting [8]) was 5 µM. In data set [3], the “Growth_1: number of cells at day 4 divided by number of cells at day 0” value worked out at 5.2, the toxic_1 is reported as 0, the “Growth_2: number of cells at day 4 divided by number of cells at day 0” value was determined as 3.9 and the toxic_2 is given as 0. For the same molecule, in data set [4] (setting [9]), the EC50 stood at 10 µM.
As to `CNCCC=C1c2ccccc2CCc2ccccc21.O` [Nortriptyline hydrochloride], in data set [1] (10 μM drug, repeat #1), the hit_1 is 1. For the same molecule, the hit_2 in data set [1] (10 μM drug, repeat #2) is 1. In addition, the activity at 10 µM was determined as 19.6% in data set [1] (setting [5]), 25.2% in data set [1] (setting [6]) and 14% in data set [1] (setting [7]). Further, the EC50 in data set [2] (setting [8]) amounted to 7.5 µM; in data set [4] (Severe acute respiratory syndrome coronavirus 2, read-out: EC50 SARS2), 3.2 µM. In addition, the “Growth_1: number of cells at day 4 divided by number of cells at day 0” value in data set [3] turned out to be 4.2. Besides, the toxic_1 in data set [3] worked out at 0. In addition, the “Growth_2: number of cells at day 4 divided by number of cells at day 0” value in data set [3] is reported as 3.1. Moreover, the toxic_2 in data set [3] was 0.
`CCN(CC)CCOCCOC(=O)C1(c2ccccc2)CCCC1.O=C(O)CC(O)(CC(=O)O)C(=O)O` [Pentoxyverine Citrate] displayed a hit_1 in data set [1] (10 μM drug, repeat #1) of 1. Besides, the hit_2 in data set [1] (10 μM drug, repeat #2) was found to be 1. Also, in data set [1] (setting [5]), the activity at 10 µM is 9.3%. Moreover, the activity at 10 µM in data set [1] (setting [6]) stood at 10.8%. Besides, the activity at 10 µM in data set [1] (setting [7]) was 7.7%. Moreover, the concentration giving a half-maximal response (EC50) in data set [2] (setting [8]) is 5.5 µM. Also, in data set [3], the “Growth_1: number of cells at day 4 divided by number of cells at day 0” value stood at 5.0, the toxic_1 is 0, the “Growth_2: number of cells at day 4 divided by number of cells at day 0” value amounted to 5.7 and the toxic_2 amounted to 0. Besides, the EC50 in data set [4] (setting [9]) was 3.6 µM.
In data set [1] (10 μM drug, repeat #1), `CCCNCC(O)COc1ccccc1C(=O)CCc1ccccc1.O` (stereo not shown) [Propafenone HCl] registered a hit_1 of 1. The same molecule gave a hit_2 in data set [1] (10 μM drug, repeat #2) of 1. The activity at 10 µM in data set [1] (setting [5]) amounted to 19.8%; in data set [1] (setting [6]) it was 20.4%; in data set [1] (setting [7]), 19.2%. For the same molecule, the figures for the EC50 in data set [2] (setting [8]) and in data set [4] (setting [9]) were 7.3 µM and 3.7 µM, respectively. Besides, in data set [3], the “Growth_1: number of cells at day 4 divided by number of cells at day 0” value came out at 4.7. Besides, the “Growth_2: number of cells at day 4 divided by number of cells at day 0” value in data set [3] worked out at 3.4.
`O.O=C(c1ccc(OCCN2CCCCC2)cc1)c1c(-c2ccc(O)cc2)sc2cc(O)ccc12` [Raloxifene HCl] registered a hit_1 in data set [1] (10 μM drug, repeat #1) of 1. In data set [1] (10 μM drug, repeat #2), this molecule displayed a hit_2 of 1. In data set [1] (setting [5]), the activity at 10 µM stood at 11.7%. Also, the activity at 10 µM in data set [1] (setting [6]) came to 9.4%. The activity at 10 µM in data set [1] (setting [7]) was found to be 14%. In data set [2] (setting [8]), the EC50 came to 2.7 µM. Also, in data set [3], the “Growth_1: number of cells at day 4 divided by number of cells at day 0” value came out at 5.0, the toxic_1 turned out to be 0, the “Growth_2: number of cells at day 4 divided by number of cells at day 0” value is on record as 5.2 and the toxic_2 turned out to be 0. Besides, the EC50 in data set [4] (setting [9]) was determined as 3.8 µM.
On to `O=C(O)CCC(=O)O.O=C(O[C@H]1CN2CCC1CC2)N1CCc2ccccc2[C@@H]1c1ccccc1` [Solifenacin succinate], for which the hit_1 in data set [1] (10 μM drug, repeat #1) turned out to be 1. This molecule showed a hit_2 in data set [1] (10 μM drug, repeat #2) of 1. For the same molecule, the activity at 10 µM in data set [1] (read-out: OC43_1: % staining of OC43 in screen repeat #1) worked out at 13%. Further, the activity at 10 µM in data set [1] (read-out: OC43_2: % staining of OC43 in screen repeat #2) was 11.3%. Also, the activity at 10 µM in data set [1] (read-out: OC43_mean) was 12.1%. Besides, the concentration giving a half-maximal response (EC50) in data set [2] (read-out: EC50 OC43) turned out to be 4.8 µM. In data set [3], the “Growth_1: number of cells at day 4 divided by number of cells at day 0” value came to 5.0, the toxic_1 is on record as 0, the “Growth_2: number of cells at day 4 divided by number of cells at day 0” value was found to be 5.0 and the toxic_2 is reported as 0. In addition, in data set [4] (setting [9]), the EC50 came out at 3.6 µM.
